# From patent US20200069648A1, “HALOALLYLAMINE PYRAZOLE DERIVATIVE INHIBITORS OF LYSYL OXIDASES AND USES THEREOF” (Pharmaxis Ltd., priority 2017, published 2020)
# Counter-ions that a name gives are not always drawn.
# Columns and labels:
# Human LOXL2 = target: T1, Human LOXL2 (Homo sapiens, UniProt Q9Y4K0); assay: LOXL2 amine oxidase inhibition, peroxidase-coupled Amplex Red assay; type: biochemical; settings: 30 min preincubation at 37° C., putrescine substrate
# T1 sequence (Q9Y4K0 26-774): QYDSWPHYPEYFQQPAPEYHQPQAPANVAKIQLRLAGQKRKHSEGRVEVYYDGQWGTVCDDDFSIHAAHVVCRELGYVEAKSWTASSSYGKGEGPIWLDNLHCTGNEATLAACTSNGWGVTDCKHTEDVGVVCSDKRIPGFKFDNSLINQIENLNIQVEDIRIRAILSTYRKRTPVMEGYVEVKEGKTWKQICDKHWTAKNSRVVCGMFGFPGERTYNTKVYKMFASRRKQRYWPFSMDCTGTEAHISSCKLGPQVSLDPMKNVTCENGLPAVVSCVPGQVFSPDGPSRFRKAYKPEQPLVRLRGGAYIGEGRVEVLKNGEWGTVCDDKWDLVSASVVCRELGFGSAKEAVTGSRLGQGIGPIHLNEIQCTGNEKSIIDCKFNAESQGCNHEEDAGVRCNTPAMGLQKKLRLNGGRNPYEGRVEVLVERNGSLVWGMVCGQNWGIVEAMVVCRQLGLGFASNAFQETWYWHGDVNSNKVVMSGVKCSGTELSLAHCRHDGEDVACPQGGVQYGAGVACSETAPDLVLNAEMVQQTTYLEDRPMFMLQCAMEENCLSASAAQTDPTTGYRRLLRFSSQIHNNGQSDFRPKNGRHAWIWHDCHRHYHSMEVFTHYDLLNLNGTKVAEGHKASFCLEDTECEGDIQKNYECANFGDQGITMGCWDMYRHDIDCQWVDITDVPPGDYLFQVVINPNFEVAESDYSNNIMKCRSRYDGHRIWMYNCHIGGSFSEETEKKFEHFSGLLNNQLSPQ
# Excerpt: Method to Determine the Ability of Compounds of the Invention to Inhibit LOX and LOXL1-4 from Different Sources
# Lysyl oxidase (LOX) is an extracellular copper dependent enzyme which oxidizes peptidyl lysine and hydroxylysine residues in collagen and lysine residues in elastin to produce peptidyl alpha-aminoadipic-delta-semialdehydes. […] There are five LOX family members; these are LOX, LOXL1, LOXL2, LOXL3 and LOXL4. LOX and LOXL family members can be acquired as recombinant active proteins from commercial sources, or extracted from animal tissues like bovine aorta, tendons, pig skin; or prepared from cell cultures. The inhibitory effects of the compounds of the present invention were tested against the given LOX-LOXL preparation using a high-throughput coupled colorimetric method (Holt A. and Palcic M., A peroxidase-coupled continuous absorbance plate-reader assay for flavin monoamine oxidases, copper-containing amine oxidases and related enzymes. Nat. Protoc. 2006; 1: 2498-2505). The assay was developed using either 384 or 96 well format. Briefly, in a standard 384 well plate assay 25 μL of a dilution of any of the isoenzymes and orthologues in 1.2 M urea, 50 mM sodium borate buffer (pH 8.2) were added into each well in the presence of 1 μM mofegiline and 0.5 mM pargyline (to inhibit SSAO and MAO-B and MAO-A, respectively). Test compounds were dissolved in DMSO and tested in a Concentration Response Curve (CRC) with 11 data points, typically in the micromolar or nanomolar range after incubation with the enzyme for 30 min at 37° C. Twenty five μL of a reaction mixture containing twice the KM concentration of putrescine (Sigma Aldrich, e.g. 20 mM for LOX, or 10 mM for LOXL2 and LOXL3), 120 μM Amplex Red (Sigma Aldrich) and 1.5 U/mL horseradish peroxidase (Sigma Aldrich) prepared in 1.2 M urea, 50 mM sodium borate buffer (pH 8.2) were then added to the corresponding wells. The above volumes were doubled in the case of 96 wells plate. The fluorescence (RFU) was read every 2.5 min for 30 min at a range of temperatures from 37° to 45° C., excitation 565 nm and emission 590 (Optima; BMG labtech). The slope of the kinetics for each well was calculated using MARS data analysis software (BMG labtech) and this value was used to deduce the IC50 value (Dotmatics).
# Recombinant human MAO-B = target: T2, Recombinant human MAO-B (Homo sapiens, UniProt P27338); assay: Human recombinant MAO-B inhibition; type: biochemical; settings: benzylamine 100 μM
# T2 construct: purchased Sigma Aldrich
# T2 sequence (P27338 1-520): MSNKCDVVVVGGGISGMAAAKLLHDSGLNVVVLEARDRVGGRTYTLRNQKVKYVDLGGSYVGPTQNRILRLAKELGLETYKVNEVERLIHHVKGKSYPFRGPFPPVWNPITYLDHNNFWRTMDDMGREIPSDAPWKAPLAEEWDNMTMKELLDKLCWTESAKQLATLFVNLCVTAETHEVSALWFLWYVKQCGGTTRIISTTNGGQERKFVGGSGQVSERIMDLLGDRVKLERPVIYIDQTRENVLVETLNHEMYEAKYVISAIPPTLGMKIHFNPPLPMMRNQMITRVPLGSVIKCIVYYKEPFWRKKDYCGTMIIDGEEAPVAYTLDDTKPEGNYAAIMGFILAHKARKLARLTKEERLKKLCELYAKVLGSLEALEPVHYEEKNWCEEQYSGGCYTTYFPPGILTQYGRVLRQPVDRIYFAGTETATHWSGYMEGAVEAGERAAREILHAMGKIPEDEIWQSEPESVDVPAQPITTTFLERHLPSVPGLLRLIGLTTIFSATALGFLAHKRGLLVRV
# Description: Method to Determine the Ability of Compounds of Formula I to Inhibit Human Recombinant MAO-B
# The specificity of the compounds of this invention was tested by determining their ability to inhibit MAO-B activities in vitro. Recombinant human MAO-B (0.06 mg/mL; Sigma Aldrich) was used as source of MAO-B enzyme activities. The assay was performed in a similar way as for human SSAO/VAP-1 (Example 46) except, the substrate benzylamine was used at 100 μM.
IC50 (Human LOXL2) [µM],IC50 (Recombinant human MAO-B) [µM],SMILES
< 1,> 30,"Cc1nn(C/C(F)=C/CN)c(C(=O)N(C)C)c1Cc1ccc(S(=O)(=O)N(C)C)cc1 [Compound 29, (Z)-1-(4-amino-2-fluorobut-2-enyl)-4-(4-(N,N-dimethylsulfamoyl)benzyl)-N,N,3-trimethyl-1H-pyrazole-5-carboxamide hydrochloride]"
< 1,> 30,"CCOC(=O)c1nn(C/C(F)=C/CN)c(C)c1Cc1ccc(S(=O)(=O)N(C)C)cc1 [Compound 28, (Z)-ethyl 1-(4-amino-2-fluorobut-2-enyl)-4-(4-(N,N-dimethylsulfamoyl)benzyl)-5-methyl-1H-pyrazole-3-carboxylate hydrochloride]"
< 1,> 30,"Cc1c(Cc2ccc(S(=O)(=O)N(C)C)cc2)c(C(=O)N(C)C)nn1C/C(F)=C/CN [Compound 32, (Z)-1-(4-amino-2-fluorobut-2-enyl)-4-(4-(N,N-dimethylsulfamoyl)benzyl)-N,N,5-trimethyl-1H-pyrazole-3-carboxamide hydrochloride]"
< 1,> 30,"Cc1nn(C/C(F)=C/CN)c(C)c1Cc1ccc(S(C)(=O)=O)cc1Cl [Compound 12, (Z)-4-(4-(2-chloro-4-(methylsulfonyl)benzyl)-3,5-dimethyl-1H-pyrazol-1-yl)-3-fluorobut-2-en-1-amine hydrochloride]"
< 1,> 30,"CNS(=O)(=O)c1ccc(Cn2nc(C)c(C/C(F)=C/CN)c2C)c(Cl)c1 [Compound 20, (Z)-4-((4-(4-amino-2-fluorobut-2-en-1-yl)-3,5-dimethyl-1H-pyrazol-1-yl)methyl)-3-chloro-N-methylbenzenesulfonamide hydrochloride]"
< 1,> 30,"CNS(=O)(=O)c1cc(F)c(Cn2nc(C)c(C/C(F)=C/CN)c2C)cc1F [Compound 26, (Z)-4-((4-(4-amino-2-fluorobut-2-en-1-yl)-3,5-dimethyl-1H-pyrazol-1-yl)methyl)-2,5-difluoro-N-methylbenzenesulfonamide hydrochloride]"
< 1,> 30,"CNS(=O)(=O)c1ccc(Cn2nc(C)c(C/C(F)=C/CN)c2C)c(C(F)(F)F)c1 [Compound 23, (Z)-4-((4-(4-amino-2-fluorobut-2-en-1-yl)-3,5-dimethyl-1H-pyrazol-1-yl)methyl)-N-methyl-3-(trifluoromethyl)benzenesulfonamide hydrochloride]"
< 1,–,"Cc1nn(C/C(F)=C/CN)c(C(=O)N(C)C)c1Cc1ccc(S(=O)(=O)N(C)C)c(Cl)c1 [Compound 61, (Z)-1-(4-amino-2-fluorobut-2-en-1-yl)-4-(3-chloro-4-(N,N-dimethylsulfamoyl)benzyl)-N,N,3-trimethyl-1H-pyrazole-5-carboxamide hydrochloride]"
< 1,> 30,"CNS(=O)(=O)c1ccc(Cn2nc(C)c(C/C(F)=C/CN)c2C)cc1Cl [Compound 22, (Z)-4-((4-(4-amino-2-fluorobut-2-en-1-yl)-3,5-dimethyl-1H-pyrazol-1-yl)methyl)-2-chloro-N-methylbenzenesulfonamide hydrochloride]"
< 1,> 30,"Cc1nn(C/C(F)=C/CN)c(C)c1Cc1cc(F)c(S(=O)(=O)N(C)C)cc1F [Compound 19, (Z)-4-((1-(4-amino-2-fluorobut-2-en-1-yl)-3,5-dimethyl-1H-pyrazol-4-yl)methyl)-2,5-difluoro-N,N-dimethylbenzenesulfonamide hydrochloride]"
< 1,> 30,"Cc1nn(C/C(F)=C/CN)c(C)c1Cc1ccc(S(=O)(=O)N2CCCC2)cc1 [Compound 7, (Z)-4-(3,5-dimethyl-4-(4-(pyrrolidin-1-ylsulfonyl)benzyl)-1H-pyrazol-1-yl)-3-fluorobut-2-en-1-amine hydrochloride]"
< 1,–,"Cc1nn(C/C(F)=C/CN)c(C(=O)NC(C)(C)C)c1Cc1ccc(S(=O)(=O)N(C)C)c(Cl)c1 [Compound 62, (Z)-1-(4-amino-2-fluorobut-2-en-1-yl)-N-(tert-butyl)-4-(3-chloro-4-(N,N-dimethylsulfamoyl)benzyl)-3-methyl-1H-pyrazole-5-carboxamide hydrochloride]"
< 1,> 30,"Cc1nn(Cc2ccc(S(C)(=O)=O)cc2Cl)c(C)c1C/C(F)=C/CN [Compound 21, (Z)-4-(1-(2-chloro-4-(methylsulfonyl)benzyl)-3,5-dimethyl-1H-pyrazol-4-yl)-3-fluorobut-2-en-1-amine hydrochloride]"
< 1,> 30,"CCOC(=O)c1c(Cc2ccc(S(=O)(=O)N(C)C)cc2)c(C)nn1C/C(F)=C/CN [Compound 27, (Z)-ethyl 1-(4-amino-2-fluorobut-2-enyl)-4-(4-(N,N-dimethylsulfamoyl)benzyl)-3-methyl-1H-pyrazole-5-carboxylate hydrochloride]"
< 1,> 30,"Cc1nn(C/C(F)=C/CN)c(C)c1Cc1cccc(S(=O)(=O)N(C)C)c1 [Compound 5, (Z)-3-((1-(4-amino-2-fluorobut-2-en-1-yl)-3,5-dimethyl-1H-pyrazol-4-yl)methyl)-N,N-dimethyl benzenesulfonamide hydrochloride]"
< 1,> 30,"Cc1nn(C/C(F)=C/CN)c(C)c1Cc1ccc(S(=O)(=O)N(C)C)c(OC(F)(F)F)c1 [Compound 17, (Z)-4-((1-(4-amino-2-fluorobut-2-en-1-yl)-3,5-dimethyl-1H-pyrazol-4-yl)methyl)-N,N-dimethyl-2-(trifluoromethoxy)benzenesulfonamide hydrochloride]"
< 1,–,"CC(C)c1nn(C/C(F)=C/CN)c(C(C)O)c1Cc1ccc(S(=O)(=O)N(C)C)c(Cl)c1 (stereo not shown) [Compound 59, (Z)-4-((1-(4-amino-2-fluorobut-2-en-1-yl)-5-(1-hydroxyethyl)-3-isopropyl-1H-pyrazol-4-yl)methyl)-2-chloro-N,N-dimethylbenzenesulfonamide hydrochloride]"
< 1,–,"CC(C)c1nn(C/C(F)=C/CN)c(C(C)C)c1Cc1ccc(S(=O)(=O)N(C)C)c(Cl)c1 [Compound 60, (Z)-4-((1-(4-amino-2-fluorobut-2-en-1-yl)-3,5-diisopropyl-1H-pyrazol-4-yl)methyl)-2-chloro-N,N-dimethylbenzenesulfonamide hydrochloride]"

SMILES,IC50 (Human LOXL2) [µM],IC50 (Recombinant human MAO-B) [µM]
"N#CCCN [BAPN, β-aminopropionitrile, reference compound]",< 1,> 100
